{"source": "the supplement of paper PMC10307832", "experiment_in_all_cases": "relative viability (nuclei count vs DMSO), 5 days (fraction); higher = more cells survive", "key": {"[1]": {"tested_on": "LC-2-ad", "method_in_brief": "(§1)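 Relative viability divides the nuclei count in treated wells by that in vehicle wells. Lung cancer cell lines were seeded in 1536-well plates, dosed by pin tool the next day, and fixed and stained after 5 days in one step with final 0.05% Triton X-100, 1% formaldehyde and 1 ug/ml Hoechst. Dosing was a single drug or a fixed anchor-drug dose plus five library-drug doses (not always all listed) in √10 steps, and values are medians of duplicate plates imaged at 4×.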"}, "[2]": {"tested_on": "NCI-H2126", "method_in_brief": "as §1"}, "[3]": {"tested_on": "LCLC-103H", "method_in_brief": "as §1"}, "[4]": {"tested_on": "NCI-H1793", "method_in_brief": "as §1"}, "[5]": {"tested_on": "NCI-H1648", "method_in_brief": "as §1"}, "[6]": {"tested_on": "NCI-H2023", "method_in_brief": "as §1"}, "[7]": {"tested_on": "NCI-H1395", "method_in_brief": "as §1"}, "[8]": {"tested_on": "SW 900", "method_in_brief": "as §1"}, "[9]": {"tested_on": "NCI-H1651", "method_in_brief": "as §1"}, "[10]": {"tested_on": "EMC-BAC-2", "method_in_brief": "as §1"}, "[11]": {"tested_on": "PC-14", "method_in_brief": "as §1"}, "[12]": {"tested_on": "H3255", "method_in_brief": "as §1"}, "[13]": {"tested_on": "RERF-LC-KJ", "method_in_brief": "as §1"}, "[14]": {"tested_on": "NCI-H2009", "method_in_brief": "as §1"}, "[15]": {"tested_on": "NCI-H661", "method_in_brief": "as §1"}, "[16]": {"tested_on": "UMC-11", "method_in_brief": "as §1"}, "[17]": {"tested_on": "COR-L 105", "method_in_brief": "as §1"}, "[18]": {"tested_on": "ABC-1", "method_in_brief": "as §1"}, "[19]": {"tested_on": "NCI-H596", "method_in_brief": "as §1"}, "[20]": {"tested_on": "NCI-H1755", "method_in_brief": "as §1"}, "[21]": {"tested_on": "EKVX", "method_in_brief": "as §1"}, "[22]": {"tested_on": "NCI-H2087", "method_in_brief": "as §1"}}, "data": [{"smiles": "Oc1nc(-c2ccc(C(F)(F)F)cc2)nc2c1CSCC2", "note": "[XAV939] + Nc1ncn([C@H]2C[C@H](O)[C@@H](CO)O2)c(=O)n1 [Decitabine] (partner 2 µM)", "values": [{"measurement": "relative viability", "setting": "[1]; first compound 0.08 µM", "result": 0.786}, {"measurement": "relative viability", "setting": "[1]; first compound 0.253 µM", "result": 0.719}, {"measurement": "relative viability", "setting": "[1]; first compound 0.8 µM", "result": 0.872}, {"measurement": "relative viability", "setting": "[1]; first compound 2.53 µM", "result": 0.733}, {"measurement": "relative viability", "setting": "[2]; first compound 0.08 µM", "result": 0.559}, {"measurement": "relative viability", "setting": "[2]; first compound 0.253 µM", "result": 0.537}, {"measurement": "relative viability", "setting": "[2]; first compound 0.8 µM", "result": 0.595}, {"measurement": "relative viability", "setting": "[2]; first compound 2.53 µM", "result": 0.481}, {"measurement": "relative viability", "setting": "[3]; first compound 0.08 µM", "result": 0.756}, {"measurement": "relative viability", "setting": "[3]; first compound 0.253 µM", "result": 0.587}, {"measurement": "relative viability", "setting": "[3]; first compound 0.8 µM", "result": 0.687}, {"measurement": "relative viability", "setting": "[3]; first compound 2.53 µM", "result": 0.642}, {"measurement": "relative viability", "setting": "[4]; first compound 0.08 µM", "result": 0.506}, {"measurement": "relative viability", "setting": "[4]; first compound 0.253 µM", "result": 0.403}, {"measurement": "relative viability", "setting": "[4]; first compound 0.8 µM", "result": 0.549}, {"measurement": "relative viability", "setting": "[4]; first compound 2.53 µM", "result": 0.416}, {"measurement": "relative viability", "setting": "[5]; first compound 0.253 µM", "result": 0.423}, {"measurement": "relative viability", "setting": "[5]; first compound 0.8 µM", "result": 0.386}, {"measurement": "relative viability", "setting": "[5]; first compound 2.53 µM", "result": 0.438}, {"measurement": "relative viability", "setting": "[6]; first compound 0.08 µM", "result": 0.207}, {"measurement": "relative viability", "setting": "[6]; first compound 0.253 µM", "result": 0.232}, {"measurement": "relative viability", "setting": "[6]; first compound 0.8 µM", "result": 0.212}, {"measurement": "relative viability", "setting": "[6]; first compound 2.53 µM", "result": 0.228}, {"measurement": "relative viability", "setting": "[7]; first compound 0.08 µM", "result": 0.77}, {"measurement": "relative viability", "setting": "[7]; first compound 0.253 µM", "result": 0.683}, {"measurement": "relative viability", "setting": "[7]; first compound 0.8 µM", "result": 0.795}, {"measurement": "relative viability", "setting": "[7]; first compound 2.53 µM", "result": 0.688}, {"measurement": "relative viability", "setting": "[8]; first compound 0.253 µM", "result": 0.454}, {"measurement": "relative viability", "setting": "[8]; first compound 0.8 µM", "result": 0.438}, {"measurement": "relative viability", "setting": "[8]; first compound 2.53 µM", "result": 0.428}, {"measurement": "relative viability", "setting": "[9]; first compound 0.08 µM", "result": 0.606}, {"measurement": "relative viability", "setting": "[9]; first compound 0.253 µM", "result": 0.399}, {"measurement": "relative viability", "setting": "[9]; first compound 0.8 µM", "result": 0.625}, {"measurement": "relative viability", "setting": "[9]; first compound 2.53 µM", "result": 0.426}, {"measurement": "relative viability", "setting": "[10]; first compound 0.08 µM", "result": 1.04}, {"measurement": "relative viability", "setting": "[10]; first compound 0.253 µM", "result": 0.935}, {"measurement": "relative viability", "setting": "[10]; first compound 0.8 µM", "result": 0.884}, {"measurement": "relative viability", "setting": "[10]; first compound 2.53 µM", "result": 0.721}, {"measurement": "relative viability", "setting": "[11]; first compound 0.08 µM", "result": 0.203}, {"measurement": "relative viability", "setting": "[11]; first compound 0.253 µM", "result": 0.224}, {"measurement": "relative viability", "setting": "[11]; first compound 0.8 µM", "result": 0.165}, {"measurement": "relative viability", "setting": "[11]; first compound 2.53 µM", "result": 0.18}, {"measurement": "relative viability", "setting": "[12]; first compound 0.08 µM", "result": 0.637}, {"measurement": "relative viability", "setting": "[12]; first compound 0.253 µM", "result": 0.56}, {"measurement": "relative viability", "setting": "[12]; first compound 0.8 µM", "result": 0.576}, {"measurement": "relative viability", "setting": "[12]; first compound 2.53 µM", "result": 0.386}, {"measurement": "relative viability", "setting": "[13]; first compound 0.08 µM", "result": 0.717}, {"measurement": "relative viability", "setting": "[13]; first compound 0.253 µM", "result": 0.657}, {"measurement": "relative viability", "setting": "[13]; first compound 0.8 µM", "result": 0.583}, {"measurement": "relative viability", "setting": "[13]; first compound 2.53 µM", "result": 0.552}, {"measurement": "relative viability", "setting": "[14]; first compound 0.08 µM", "result": 0.515}, {"measurement": "relative viability", "setting": "[14]; first compound 0.253 µM", "result": 0.359}, {"measurement": "relative viability", "setting": "[14]; first compound 0.8 µM", "result": 0.405}, {"measurement": "relative viability", "setting": "[14]; first compound 2.53 µM", "result": 0.336}, {"measurement": "relative viability", "setting": "[15]; first compound 0.08 µM", "result": 0.542}, {"measurement": "relative viability", "setting": "[15]; first compound 0.253 µM", "result": 0.493}, {"measurement": "relative viability", "setting": "[15]; first compound 0.8 µM", "result": 0.544}, {"measurement": "relative viability", "setting": "[15]; first compound 2.53 µM", "result": 0.509}, {"measurement": "relative viability", "setting": "[16]; first compound 0.08 µM", "result": 0.633}, {"measurement": "relative viability", "setting": "[16]; first compound 0.253 µM", "result": 0.616}, {"measurement": "relative viability", "setting": "[16]; first compound 0.8 µM", "result": 0.467}, {"measurement": "relative viability", "setting": "[16]; first compound 2.53 µM", "result": 0.26}, {"measurement": "relative viability", "setting": "[17]; first compound 0.08 µM", "result": 0.719}, {"measurement": "relative viability", "setting": "[17]; first compound 0.253 µM", "result": 0.551}, {"measurement": "relative viability", "setting": "[17]; first compound 0.8 µM", "result": 0.587}, {"measurement": "relative viability", "setting": "[17]; first compound 2.53 µM", "result": 0.563}, {"measurement": "relative viability", "setting": "[18]; first compound 0.253 µM", "result": 1.27}, {"measurement": "relative viability", "setting": "[18]; first compound 0.8 µM", "result": 0.975}, {"measurement": "relative viability", "setting": "[18]; first compound 2.53 µM", "result": 0.655}, {"measurement": "relative viability", "setting": "[19]; first compound 0.08 µM", "result": 1}, {"measurement": "relative viability", "setting": "[19]; first compound 0.253 µM", "result": 0.976}, {"measurement": "relative viability", "setting": "[19]; first compound 0.8 µM", "result": 1.03}, {"measurement": "relative viability", "setting": "[19]; first compound 2.53 µM", "result": 0.928}, {"measurement": "relative viability", "setting": "[20]; first compound 0.08 µM", "result": 0.693}, {"measurement": "relative viability", "setting": "[20]; first compound 0.253 µM", "result": 0.677}, {"measurement": "relative viability", "setting": "[20]; first compound 0.8 µM", "result": 0.72}, {"measurement": "relative viability", "setting": "[20]; first compound 2.53 µM", "result": 0.691}, {"measurement": "relative viability", "setting": "[21]; first compound 0.08 µM", "result": 0.329}, {"measurement": "relative viability", "setting": "[21]; first compound 0.253 µM", "result": 0.336}, {"measurement": "relative viability", "setting": "[21]; first compound 0.8 µM", "result": 0.356}, {"measurement": "relative viability", "setting": "[21]; first compound 2.53 µM", "result": 0.262}, {"measurement": "relative viability", "setting": "[22]; first compound 0.08 µM", "result": 0.28}, {"measurement": "relative viability", "setting": "[22]; first compound 0.253 µM", "result": 0.297}, {"measurement": "relative viability", "setting": "[22]; first compound 0.8 µM", "result": 0.302}, {"measurement": "relative viability", "setting": "[22]; first compound 2.53 µM", "result": 0.243}]}]}
